Data as given in patent US20250206719A1, “ALBICIDIN DERIVATIVES, THEIR USE AND SYNTHESIS” (TECHNISCHE UNIVERSITÄT BERLIN, priority 2022, published 2025).
Converted amounts (≈) assume the structure as drawn. Where two headings read alike, the source gives them in different places.

How the values were obtained:
S. typhimurium TA100 = experiment: MIC microdilution assay, S. typhimurium TA100; format: cell-based; details: Salmonella enterica, 20 h, read-out: MIC S. typhimurium TA100
Protocol: (§1) The tests were performed using the micro dilution method.
(§2) The determination of MIC values was performed according to the ninth edition of the Approved Standard M07-A9 (CLSI. Methods for Dilution Antimicrobial Susceptibility Tests for Bacteria That Grow Aerobically; Approved Standard-Ninth Edition. CLSI document M07-A9. Wayne, PA: Clinical and Laboratory Standards Institute; 2012.)
(§3) The test was carried out for different bacterial strains (E. coli DSM 1116, E. coli BW25113 [gram negative], B. subtilis DSM 10 [gram positive], M. luteus DSM 1790 [gram positive], S. typhimurium TA100 [gram negative]) and M. phlei DSM 750. 20 μL of cryo stock of each strain were inoculated in 20 mL of LB media (Lysogeny broth: 10 g/L peptone, 5 g/L yeast extract, 5 g/L NaCl) followed by incubation over night at 37° C., 200 rpm. The test inoculum was adjusted by the 0.5 McFarland Standard (OD625 from 0.08 to 0.1). Within 15 min of preparation, the adjusted inoculum suspension was diluted in MHBII media (BBL TM Mueller-Hinton Broth II, Becton, Dickinson and Company, New Jersey/USA) so that each well contained approximately 5×10^5 CFU/mL in a final volume of 100 μL. 95 μL of the inoculum were applied per well and 5 μL of the (diluted) antibiotic substance were added.
(§4) Previously the dry antibiotic compounds were dissolved in DMSO (100%) with a concentration of 2560 μg/mL and the resulting stock solutions were further diluted in DMSO (100%). 5 μL of each antibiotic dilution were applied to the microdilution tray to reach final concentrations of 64 μg/mL to 0.008 μg/mL. One row of each well plate was left as a growth control without antibiotic substances and another row of the microdilution tray was used as sterility control (only MHB II-media). The antimicrobial effect of the solvent (DMSO) was tested by adding 5 μL DMSO to several wells without antibiotics. Purity check and cell titer control were performed according to International Standard M07-A9 on Mueller-Hinton II Agar (Mueller Hinton II Broth, 15 g/L agar-agar). Both microdilution trays and agar plates were incubated at 37° C. for 20 h and subsequently analyzed visually.

E. coli BW25113 [1] = experiment: MIC determination (medium: MHBII/human serum (1:1)); format: cell-based; details: Escherichia coli
Protocol: The test was carried out for bacterial strain, E. coli BW25113 (Gram-negative).
First, 20 μl of glycerol stock of the strain was inoculated in 20 mL LB followed by incubation overnight at 37° C., 200 r.p.m.
The serum was subjected to a heat shock (56° C./30 min in a water bath) before use.
The test inoculum was adjusted by the 0.5 McFarland Standard, so that each well contained approximately 5×10^5 c.f.u. mL^−1 in a final volume of 100 μL. For the adjustment of the test inoculum, MHBII medium and the human serum were used in a mixing ratio of 1:1.
For dilutions, the dry powders were dissolved in DMSO with a concentration of 2.56 mg mL-1 and serially diluted in DMSO (100%). Initial solution and serial dilutions of Ciprofloxacin were prepared in 0.1 N HCl.
Then, 95 μL of the adjusted inoculum was applied per well and 5 μl of each antibiotic dilution was applied to the microdilution tray to reach final concentrations of 8 to 0.016 μg ml^−1.
The antimicrobial effect of the solvent (DMSO or 0.1 N HCL) was tested by adding 5 μL DMSO or 0.1 N HCL to several wells.
One row of each well plate served as a growth control without antibiotic substances, and another row of the microdilution tray served as sterility control (MHB II-media).

M. phlei DSM 750 = experiment: MIC microdilution assay, M. phlei DSM 750; format: cell-based, Mycobacterium phlei; details: Mycolicibacterium phlei, read-out: MIC M. phlei DSM 750
Protocol: as §1, §2, §3, §4

E. coli DSM 1116 = experiment: MIC microdilution assay, E. coli DSM 1116; format: cell-based; details: Escherichia coli, read-out: MIC E. coli DSM1116
Protocol: as §1, §2, §3, §4

Bacillus subtilis DSM10 = experiment: MIC microdilution assay, B. subtilis DSM 10; format: cell-based; details: read-out: MIC B. subtilis DSM10
Protocol: as §1, §2, §3, §4

[2] = test system: Micrococcus luteus DSM1790; experiment: MIC microdilution assay, M. luteus DSM 1790; format: cell-based; details: read-out: MIC M. luteus DSM 1790
Protocol: as §1, §2, §3, §4

E. coli BW25113 [3] = experiment: MIC microdilution assay, E. coli BW25113; format: cell-based; details: Escherichia coli, read-out: MIC E. coli BW25113
Protocol: as §1, §2, §3, §4

[4] = MHBII medium, 37° C., test range 64 to 0.008 μg/mL
[5] = E. coli BW25113, MHBII/human serum 1:1, test range 8 to 0.016 μg/ml, read-out: MIC E. coli + 50% human serum
[6] = BW25113, MHBII medium, 37° C., 20 h, test range 64 to 0.008 μg/mL
[7] = DSM750, MHBII medium, 37° C., 20 h, test range 64 to 0.008 μg/mL
[8] = DSM1116, MHBII medium, 37° C., 20 h, test range 64 to 0.008 μg/mL
[9] = DSM10, MHBII medium, 37° C., 20 h, test range 64 to 0.008 μg/mL
[10] = DSM1790, MHBII medium, 37° C., 20 h, test range 64 to 0.008 μg/mL

SMILES	MIC (S. typhimurium TA100; [4]) [µg/mL]	MIC (E. coli BW25113 [1]; [5]) [µg/mL]	MIC (E. coli BW25113 [3]; [6]) [µg/mL]	MIC (M. phlei DSM 750; [7]) [µg/mL]	MIC (E. coli DSM 1116; [8]) [µg/mL]	MIC (Bacillus subtilis DSM10; [9]) [µg/mL]	MIC [2, 10] [µg/mL]	further results
COc1c(NC(=O)c2ccc(NC(=O)c3ccc(NC(=O)[C@H](Cc4c[nH]nn4)NC(=O)c4ccc(NC(=O)c5ccc6ncccc6c5)cc4)cn3)c(OC)c2O)ccc(C(=O)O)c1O (stereo in doubt) [Compound 2]	≤ 0.016	4	–	–	–	–	–	–
COc1c(NC(=O)c2ccc(NC(=O)c3ccc(NC(=O)[C@H](Cc4c[nH]nn4)NC(=O)c4ccc(NC(=O)c5cc6ccccc6cn5)cc4)cn3)c(OC)c2O)ccc(C(=O)O)c1O (stereo in doubt) [Compound 10]	–	–	–	–	–	–	–	MIC (S. typhimurium TA100): ≤ 0.016 µg/mL; MIC (M. phlei DSM 750; DSM750, 20 h): 1 µg/mL (≈ 1.14 µM); MIC (E. coli DSM 1116; DSM1116, 20 h): ≤ 0.016 µg/mL; MIC (Bacillus subtilis DSM10; DSM10, 20 h): 0.063 µg/mL (≈ 0.0715 µM); MIC ([2]; DSM1790, 20 h): 0.063 µg/mL (≈ 0.0715 µM); MIC (E. coli BW25113 [1]; BW25113, read-out: MIC E. coli + 50% human serum): 1 µg/mL; MIC (E. coli BW25113 [3]; BW25113, 20 h): ≤ 0.016 µg/mL
COc1c(NC(=O)c2ccc(NC(=O)c3ccc(NC(=O)[C@H](Cc4c[nH]nn4)NC(=O)c4ccc(NC(=O)c5cc(=O)c6cc(F)ccc6o5)cc4)cn3)c(OC)c2O)ccc(C(=O)O)c1O (stereo in doubt) [Compound 12]	≤ 0.016	8	–	–	–	–	–	–
COc1c(NC(=O)c2ccc(NC(=O)c3ccc(NC(=O)[C@H](Cc4c[nH]nn4)NC(=O)c4ccc(NC(=O)c5ccc6ccccc6n5)cc4)cn3)c(OC)c2O)ccc(C(=O)O)c1O (stereo in doubt) [Compound 13]	≤ 0.016	2	–	–	–	–	–	–
COc1c(NC(=O)c2ccc(NC(=O)c3ccc(NC(=O)[C@H](Cc4c[nH]nn4)NC(=O)c4ccc(NC(=O)c5cc6cc(O)ccc6[nH]5)cc4)cn3)c(OC)c2O)ccc(C(=O)O)c1O (stereo in doubt) [Compound 14]	0.125 (≈ 0.141 µM)	≥ 8	0.125 (≈ 0.141 µM)	–	–	–	–	–
COc1c(NC(=O)c2ccc(NC(=O)c3ccc(NC(=O)C(Cc4c[nH]nn4)NC(=O)c4ccc(NC(=O)/C(C)=C/c5ccc(O)cc5)cc4)cn3)c(OC)c2O)ccc(C(=O)O)c1O (stereo not drawn) [3^RD GEN Alb i, reference compound]	0.016 (≈ 0.0181 µM)	0.5	0.016 (≈ 0.0181 µM)	0.25 (≈ 0.282 µM)	0.016 (≈ 0.0181 µM)	0.031 (≈ 0.035 µM)	0.031 (≈ 0.035 µM)	–
COc1c(NC(=O)c2ccc(NC(=O)c3ccc(NC(=O)[C@H](Cc4c[nH]nn4)NC(=O)c4ccc(NC(=O)c5ccc6nc(C)ccc6c5)cc4)cn3)c(OC)c2O)ccc(C(=O)O)c1O [Compound 1]	≤ 0.016	0.5	0.016 (≈ 0.0179 µM)	0.5 (≈ 0.559 µM)	0.016 (≈ 0.0179 µM)	0.063 (≈ 0.0704 µM)	0.063 (≈ 0.0704 µM)	–
COc1c(NC(=O)c2ccc(NC(=O)c3ccc(NC(=O)[C@H](Cc4c[nH]nn4)NC(=O)c4ccc(NC(=O)c5cnc6ccccc6c5)cc4)cn3)c(OC)c2O)ccc(C(=O)O)c1O [Compound 3]	≤ 0.016	2	–	–	–	–	–	–
COc1c(NC(=O)c2ccc(NC(=O)c3ccc(NC(=O)[C@H](Cc4c[nH]nn4)NC(=O)c4ccc(NC(=O)c5c[nH]c6ccccc6c5=O)cc4)cn3)c(OC)c2O)ccc(C(=O)O)c1O [Compound 4]	≤ 0.016	2	–	–	–	–	–	–
CCn1cc(C(=O)Nc2ccc(C(=O)N[C@@H](Cc3c[nH]nn3)C(=O)Nc3ccc(C(=O)Nc4ccc(C(=O)Nc5ccc(C(=O)O)c(O)c5OC)c(O)c4OC)nc3)cc2)c(=O)c2cc3c(cc21)OCO3 [Compound 6]	≤ 0.016	0.5	–	–	–	–	–	–
COc1c(NC(=O)c2ccc(NC(=O)c3ccc(NC(=O)[C@H](Cc4c[nH]nn4)NC(=O)c4ccc(NC(=O)c5ccc6nccnc6c5)cc4)cn3)c(OC)c2O)ccc(C(=O)O)c1O [Compound 7]	≤ 0.016	1	–	–	–	–	–	–
COc1c(NC(=O)c2ccc(NC(=O)c3ccc(NC(=O)C(Cc4c[nH]nn4)NC(=O)c4ccc(NC(=O)c5ccc6ncsc6c5)cc4)cn3)c(OC)c2O)ccc(C(=O)O)c1O (stereo not drawn) [Compound 8]	≤ 0.016	0.5	≤ 0.016	2 (≈ 2.26 µM)	≤ 0.016	–	–	–
COc1c(NC(=O)c2ccc(NC(=O)c3ccc(NC(=O)C(Cc4c[nH]nn4)NC(=O)c4ccc(NC(=O)c5ccc6nc[nH]c6c5)cc4)cn3)c(OC)c2O)ccc(C(=O)O)c1O (stereo not drawn) [Compound 9]	0.125 (≈ 0.144 µM)	≥ 8	0.125 (≈ 0.144 µM)	8 (≈ 9.2 µM)	0.125 (≈ 0.144 µM)	2 (≈ 2.3 µM)	2 (≈ 2.3 µM)	–
CCn1cc(C(=O)Nc2ccc(C(=O)N[C@@H](Cc3c[nH]nn3)C(=O)Nc3ccc(C(=O)Nc4ccc(C(=O)Nc5ccc(C(=O)O)c(O)c5OC)c(O)c4OC)nc3)cc2)c(=O)c2ccc(C)nc21 [Compound 11]	≤ 0.016	8	–	–	–	–	–	–
COc1c(NC(=O)c2ccc(NC(=O)c3ccc(NC(=O)C(Cc4c[nH]nn4)NC(=O)c4ccc(NCc5ccc6ncccc6c5)cc4)cn3)c(OC)c2O)ccc(C(=O)O)c1O (stereo not drawn) [Compound 15]	0.031 (≈ 0.0358 µM)	4 to 8	0.031 (≈ 0.0358 µM)	2 (≈ 2.31 µM)	0.063 (≈ 0.0727 µM)	0.25 to 0.5 (≈ 0.288 to 0.577 µM)	0.125 (≈ 0.144 µM)	–
COc1c(NC(=O)c2ccc(NC(=O)c3ccc(NC(=O)C(Cc4c[nH]nn4)NC(=O)c4ccc(NC(=O)c5ccc6nn[nH]c6c5)cc4)cn3)c(OC)c2O)ccc(C(=O)O)c1O (stereo not drawn) [Compound 16]	0.125 (≈ 0.144 µM)	8	0.031 (≈ 0.0356 µM)	4 to 8 (≈ 4.59 to 9.19 µM)	0.063 (≈ 0.0723 µM)	0.5 to 1 (≈ 0.574 to 1.15 µM)	1 (≈ 1.15 µM)	–
